Assay results: patent US20110306635A1, “PYRIDINE COMPOUNDS AS SUBTYPE SELECTIVE MODULATORS OF ALPHA2B AND /OR ALPHA 2C […]” (ALLERGAN ,INC., priority 2009, published 2011)

Experiments:
Assay type in all cases: cell-based
[1] = target: T1, alpha 2B adrenergic receptor (Homo sapiens, UniProt P18089); test: RSAT (Receptor Selection and Amplification Technology) assay, alpha 2B; details: for EC50: cells expressing alpha 2B receptor alone, receptor-mediated growth response; for RSAT efficacy, Alpha 2B: relative efficacy compared to a standard full agonist (value in parentheses)
T1 construct: expressed in transfected cells
T1 sequence (P18089 1-450): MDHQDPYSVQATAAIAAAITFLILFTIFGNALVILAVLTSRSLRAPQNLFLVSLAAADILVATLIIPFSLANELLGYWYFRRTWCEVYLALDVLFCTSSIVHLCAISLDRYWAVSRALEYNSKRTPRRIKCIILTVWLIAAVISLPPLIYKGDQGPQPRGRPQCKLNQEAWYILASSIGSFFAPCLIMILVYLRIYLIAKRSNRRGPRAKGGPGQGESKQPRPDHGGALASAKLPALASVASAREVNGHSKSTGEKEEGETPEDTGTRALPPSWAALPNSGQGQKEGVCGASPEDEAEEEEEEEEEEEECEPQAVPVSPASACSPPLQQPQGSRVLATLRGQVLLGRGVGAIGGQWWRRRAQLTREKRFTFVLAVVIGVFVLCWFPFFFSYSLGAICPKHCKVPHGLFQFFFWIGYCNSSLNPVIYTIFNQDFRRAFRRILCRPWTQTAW
Method: (§1) The compounds were synthesized and tested for alpha adrenergic activity using the Receptor Selection and Amplification Technology (RSAT) assay (Messier et. al., 1995, Pharmacol. Toxicol. 76, pp. 308-311). Cells expressing each of the alpha-2 adrenergic receptors alone were incubated with the Compound 1 and a receptor-mediated growth response was measured. A compound's activity is expressed as its relative efficacy compared to a standard full agonist (see table). Compound of this invention activates alpha-2B and alpha-2C receptors.
(§2) The results of the RSAT assay with several exemplary compounds of the invention are disclosed in Table 1 below together with the chemical formulas of these exemplary compounds. EC50 values are nanomolar.

[2] = target: T2, alpha 2A adrenergic receptor (Homo sapiens, UniProt P08913); test: RSAT (Receptor Selection and Amplification Technology) assay, alpha 2A; details: cells expressing alpha 2A receptor alone; receptor-mediated growth response
T2 construct: expressed in transfected cells
T2 sequence (P08913 1-465): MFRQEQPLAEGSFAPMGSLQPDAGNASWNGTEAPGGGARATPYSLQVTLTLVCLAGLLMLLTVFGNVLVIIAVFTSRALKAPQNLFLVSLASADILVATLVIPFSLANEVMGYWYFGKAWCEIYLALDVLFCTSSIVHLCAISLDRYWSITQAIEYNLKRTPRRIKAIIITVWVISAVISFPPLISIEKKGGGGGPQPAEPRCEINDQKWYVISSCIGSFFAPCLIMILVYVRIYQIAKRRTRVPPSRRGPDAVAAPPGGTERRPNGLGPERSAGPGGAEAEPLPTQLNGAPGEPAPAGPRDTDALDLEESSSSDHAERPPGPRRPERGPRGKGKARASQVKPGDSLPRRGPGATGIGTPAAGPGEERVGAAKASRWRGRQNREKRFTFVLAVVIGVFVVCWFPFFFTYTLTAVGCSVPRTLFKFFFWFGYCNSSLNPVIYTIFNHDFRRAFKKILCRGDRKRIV
Method: as §1, §2

[3] = target: T3, alpha 2C adrenergic receptor (Homo sapiens, UniProt P18825); test: RSAT (Receptor Selection and Amplification Technology) assay, alpha 2C; details: for EC50: cells expressing alpha 2C receptor alone, receptor-mediated growth response; for RSAT efficacy, Alpha 2C: relative efficacy compared to a standard full agonist (value in parentheses)
T3 construct: expressed in transfected cells
T3 sequence (P18825 1-462): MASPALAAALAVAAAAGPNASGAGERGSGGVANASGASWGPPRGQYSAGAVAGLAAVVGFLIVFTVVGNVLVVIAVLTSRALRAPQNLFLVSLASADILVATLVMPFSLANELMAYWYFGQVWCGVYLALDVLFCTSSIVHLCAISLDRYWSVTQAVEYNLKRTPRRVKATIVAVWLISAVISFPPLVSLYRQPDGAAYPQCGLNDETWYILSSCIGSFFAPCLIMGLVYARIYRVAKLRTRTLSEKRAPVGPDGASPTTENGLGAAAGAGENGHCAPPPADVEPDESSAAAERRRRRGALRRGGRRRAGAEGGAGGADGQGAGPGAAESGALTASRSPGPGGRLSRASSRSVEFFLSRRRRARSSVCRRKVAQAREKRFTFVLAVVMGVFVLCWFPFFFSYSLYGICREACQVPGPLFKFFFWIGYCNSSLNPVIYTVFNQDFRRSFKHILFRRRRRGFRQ
Method: as §1, §2

## Cc1nccc(C(C)c2c[nH]cn2)c1C (stereo not shown) [4-(1-(1H-imidazol-4-yl)ethyl)-2,3-dimethylpyridine]
[1]
  EC50: 0.0167 µM
  RSAT efficacy, Alpha 2B: 0.99
[2]
  RSAT EC50 (nM); efficacy, Alpha 2A: Not active
[3]
  EC50: 1.29 µM
  RSAT efficacy, Alpha 2C: 0.35

## CC(c1c[nH]cn1)c1ccnc2c1CCCC2 (stereo not shown) [4-(1-(1H-imidazol-4-yl)ethyl)-5,6,7,8-tetrahydroquinoline]
[1]
  EC50: 0.0235 µM
  RSAT efficacy, Alpha 2B: 1.12
[2]
  RSAT EC50 (nM); efficacy, Alpha 2A: Not active
[3]
  EC50: 0.37 µM
  RSAT efficacy, Alpha 2C: 0.35
